The source of these data is a melting point compilation (Tetko et al.; mined from patent text by program, amines drawn as free bases though some values may be those of a salt).

The structures appear in SMILES notation. Some results are limits rather than exact numbers.

Turning to `O=C(NN=Cc1ccncc1)OC(c1ccccc1)c1ccccc1`, the melting point (usually the temperature of the solid-liquid transition) was in the range of 159 to 160 °C.

`C=CCNC(=O)[C@H]1N(C(=O)OC(C)(C)C)CSC1(C)C`: the melting point was in the range of 94 to 98 °C.

Compound `O=C(/C=C/c1cccc(Br)c1)NC1CC1` gave a melting point of 110 to 111 °C.

In the case of `CC(C)Nc1nc(Cl)nc(NCCS)n1`, the melting point lay within 141 to 146 °C.

Regarding `CCOCCCn1ccc(=O)c(OC(=O)NCC(=O)OCC)c1C`, the melting point is 84 to 85 °C.

In the case of `C[C@@](N)(Cc1ccc(OC(F)(F)F)cc1)C(=O)Nc1cc(Cl)cc(Cl)c1`, the melting point was above 200 °C.

`N#Cc1ccc2c(c1)C(c1ccccc1F)=NCC(OP(=O)(N1CCOCC1)N1CCOCC1)=N2` gave a melting point of 194 to 197 °C.

On to `O=C(Nc1ccccc1)Nc1cccc(-c2ccc(CC34CCCN3C(=O)N(c3cc(Cl)cc(Cl)c3)C4=O)cc2)c1` (configuration not stated), for which the melting point worked out at 150 °C.

`O=S(=O)(c1ccccc1)n1ccc2c(CBr)cccc21`: the melting point fell in the range of 127 to 128 °C.

`CCOC(=O)c1c(-c2ccc(F)cc2)c2n(c1C(C)C)CCCC2` returned a melting point of 85.5 to 86.5 °C.

The compound `CCC(C)(C)OC(=O)NC(C)(Cc1c[nH]c2ccccc12)C(=O)NCCc1ccccn1` (configuration not stated) gave a melting point of 151 to 152 °C.

Consider `CC1(COc2ccc([N+](=O)[O-])cc2)CC(O)c2cc(O)c(C(C)(C)C)cc2O1` (configuration not stated), for which the melting point fell in the range of 194 to 201 °C.

Turning to `CC(C)Cn1c(CCCCNC(=O)Nc2ccccc2)nc2c(N)nc3ccccc3c21`, the melting point was 113 to 115 °C.

For the compound `CC1(C)Oc2ccc(C#N)cc2C(n2ccccc2=O)C1O` (configuration not stated), the melting point amounted to 243 °C.

Take `Cc1ccc(Nc2nc(-c3ccccn3)cs2)nc1`: the melting point lay within 184 to 190 °C.

Regarding `CS(=O)(=O)c1ccc(-c2cc(C(CCCO[N+](=O)[O-])=NO)nn2C2CCCCC2)cc1`, the melting point fell in the range of 121 to 123 °C.

Turning to `COc1cc2c(C)csc2c(Cl)c1Cl`, the melting point was 122 to 124 °C.

For `O=C(O)c1nc2c(=O)[nH]c3cc(C(F)(F)F)ccc3n2c1CNCc1ccccc1`, the melting point came to 248 °C.

Take `COC(=O)[C@@H]1CCC(c2cccc(O)c2)N1C(=O)CNC(=O)OCc1ccccc1` (some centres not stated): the melting point is 173 °C.

With `Cn1c(=O)n(C(=O)OC(C)(C)C)c2ccc(Br)cc21`, the melting point lay in the range of 98 to 99 °C.

`CCN(CC)CCCCC1CCN(CC(=O)N2c3ccccc3NC(=O)c3c2ccn3C)CC1` came in with a melting point of 198 °C.

Turning to `CCS(=O)(=O)c1cnc(Cl)c(Cl)c1`, the melting point lay within 141 to 142 °C.

`CC(N)Cc1ccc(OCC(=O)NCCc2ccc(O)cc2)cc1` (configuration not stated) had a melting point of 160 to 163 °C.

In turn, `O=C1C(c2cc3c(cc2O)OCCO3)c2c(F)cccc2N1C(c1ccccc1)c1ccccc1` (configuration not stated) displayed a melting point of 115 to 118 °C.

`COC(O)c1ccc2c(c1)C(C(Cl)(Cl)Cl)OC(C(Cl)(Cl)Cl)O2` (configuration not stated): the melting point lay in the range of 123 to 125 °C.

Regarding `CCCCn1cc(C(=O)O)c(=O)c2cc(C)sc21`, the melting point lay within 172 to 173 °C.

In the case of `CCCc1[nH]c2cc(C(N)=O)ccc2c1C(=O)C1CCC1`, the melting point was 253 to 255 °C.

Turning to `CCc1cc(NCc2ccc(-c3ccccc3-c3nnn[nH]3)cc2)n2ncc(Cl)c2n1`, the melting point is 136 to 138 °C.

`CCN1C(=O)Cc2cnc(N3CCN(Cc4ccccc4)CC3)nc21`: the melting point lay in the range of 110 to 113 °C.

Compound `Cc1cccc(-c2nc3ccc(Cl)nn3c2-c2ccnc(Nc3ccc(F)cc3C)c2)c1` showed a melting point of 191 to 192 °C.

Compound `CSCCCn1cc(C2=C(c3cn(C)c4ccccc34)C(=O)NC2=O)c2ccccc21` yielded a melting point of 222 to 224 °C.

Take `C#CCOc1cc(-c2nc3n(c2Cl)CCCC3)c(F)cc1Cl`: the melting point lay in the range of 142 to 145 °C.

In the case of `COc1ccc(Sc2ccncc2)c([N+](=O)[O-])c1`, the melting point fell in the range of 57 to 59 °C.

Turning to `O=Cc1cc([N+](=O)[O-])cc(Cl)c1S`, the melting point was in the range of 84 to 89 °C.

As to `CCCCN=C(O)c1c(Sc2ccccc2)c(Sc2ccccc2)c(Sc2ccccc2)c(Sc2ccccc2)c1C(=O)O`, the melting point was in the range of 159 to 160 °C.

The compound `COc1cc2c(cc1Nc1ncc(Cl)c(N[C@@H]3CCCC[C@H]3NS(C)(=O)=O)n1)CCN(C(=O)CN(C)C)CC2` displayed a melting point of 128 to 141 °C.

For the compound `Cc1nc(NC(=O)c2cnn3c(C(F)F)cc(-c4ccc(C(F)(F)F)cc4)nc23)sc1S(=O)(=O)NC(CO)CO`, the melting point was determined as 217 °C.

The compound `CN(C)C(=O)c1nn(-c2ccncc2)c(=O)c2c1c1ccc(Cl)cc1n2C` returned a melting point of 276 to 278 °C.

Consider `CN(CCOc1ccc(C=CC=O)cc1F)c1ccccn1`, for which the melting point lay in the range of 93 to 94 °C.

In turn, `CCc1nn2c(-c3cccc(OC)c3)ccnc2c1C#N` gave a melting point of 118 to 119 °C.

The compound `CC(=O)c1cc2c(c(O)c1O)OC(C)(C)CC2C` (configuration not stated) gave a melting point of 153 to 154 °C.

As for `O=C1Nc2cnc(N3CCN(c4ncccn4)CC3)nc2S/C1=C/c1ccc([N+](=O)[O-])cc1`, the melting point was 320 °C.

For the compound `OCc1cc(Cl)c(F)cn1`, the melting point is 50 to 52 °C.

Compound `COc1cccc2c1C(=O)C(Br)=C(Br)C2=O` returned a melting point of 190 °C.

The compound `COc1cc2c(cc1[N+](=O)[O-])-c1c(-c3cccs3)c3c(n1CC2)C(=O)N(C(C)(C)C)CC3` came in with a melting point of 226 to 227 °C.

For the compound `O=C(O)c1cn(-c2cccc(OC(F)(F)F)c2)cn1`, the melting point is 173 to 175 °C.

Compound `CCC(CC(Cc1cccc2ccccc12)C(=O)N[C@@H](Cc1c[nH]cn1)C(=O)N[C@H](C=NNC(N)=O)CC(C)C)c1ccccc1` (some centres not stated) came in with a melting point of 105 to 109 °C.

Turning to `Cc1c(C)n(CC2CC2)c2c(OCc3ccccc3)nncc12`, the melting point is 123 to 124 °C.

On to `Cn1c(COc2ccc(CC3SC(=O)NC3=O)cc2)nc2cnccc21` (configuration not stated), for which the melting point was in the range of 264 to 265 °C.

`N#Cc1ccc(N(Cc2ccc3cc(O)ccc3c2)n2cnnc2)cc1`: the melting point is 281 to 284 °C.

Compound `CC(=O)N1CCc2ccc(C(=O)c3cccc(F)c3)cc2C1` yielded a melting point of 136 to 139 °C.

`O=c1[nH]c2ccccc2c(=O)c2ccccc12` returned a melting point of 245 to 248 °C.

For `Cc1ccc(NC(=O)c2ccc(CN3C(=O)C4(COc5cc6c(cc54)CCO6)c4ccccc43)cc2)c(C)c1` (configuration not stated), the melting point is 249 to 251 °C.

`CN(C)C(=O)Cn1c(-c2cccc(Br)c2)nc2cccnc21` came in with a melting point of 144 to 146 °C.

Compound `CCOC(=O)C(NC(=O)NC)C(=O)OCC` showed a melting point of 139 °C.

As for `CNc1nc(-c2cncc(Br)c2)c2cc(OC)c(OC)cc2n1`, the melting point was in the range of 228 to 230 °C.

In turn, `Cc1nc(NC(=O)C2CC2)sc1C(=O)NCc1ccccc1` showed a melting point of 241 to 243 °C.

For `Cc1cc(-n2ccnc2)c2cccc(OCc3c(Cl)ccc(S(=O)(=O)N4CCC[C@H]4C(=O)NCC4CCN(Cc5cccnc5)CC4)c3Cl)c2n1`, the melting point was 107 °C.

As to `NC(=O)c1ncn(C2OC(CO)C(O)C2O)c1C(N)=O` (configuration not stated), the melting point fell in the range of 224 to 226 °C.

`CSc1cc(=O)c2cc(OC(=O)OC(C)(C)C)c(OC(=O)OC(C)(C)C)cc2s1` had a melting point of 110 to 111 °C.

`CCc1ccc2c(c1)C(C(=O)O)c1ccccc1CO2` (configuration not stated): the melting point lay within 154 to 155 °C.

For the compound `CC(=O)Nc1cc(F)ccc1C(=O)NCCN1CCC2(CC1)C(=O)NCN2c1ccc(F)cc1`, the melting point worked out at 195 °C.

Consider `Cc1nc2ccccc2nc1S(=O)Cc1ccccc1N(C)C` (configuration not stated), for which the melting point lay in the range of 68 to 70 °C.

For the compound `CC(C)(NC=O)c1cc(Cl)cc(Cl)c1`, the melting point was in the range of 115 to 117 °C.

In the case of `COc1cc2c(C)c(C)sc2c(Cl)c1Cl`, the melting point fell in the range of 159 to 160 °C.

Turning to `CN(C)C=CC(=O)c1ccc(OCC(O)CN2CCN(c3cccc(Cl)c3)CC2)cc1` (configuration not stated), the melting point is 130 to 133 °C.

`CCOC(=O)C(CCc1ccccc1)NC1CSC(c2ccsc2)CN(CC(=O)O)C1=O` (configuration not stated) returned a melting point of 165 °C.

`CC(Nc1ncccc1C#N)c1c(Cl)cccc1Cl` (configuration not stated) showed a melting point of 84.4 °C.

In turn, `N=C(NO)c1nc2cnc3ccc(Cl)cc3c2n1-c1ccccc1Cl` displayed a melting point of 265 to 267 °C.

`COC(=O)CCC(=O)c1ccc(-c2ccc(C(C)(C)C)cc2)cc1` gave a melting point of 58 to 62 °C.

`CC(CN(C)C)OC(=O)c1ccc(NC(=O)CCn2cnc3c(=O)[nH]cnc32)cc1` (configuration not stated): the melting point lay within 270 to 275 °C.

`CC1(C)CC(=O)C2=C(C1)NC1=C(C(=O)CC(C)(C)C1)C2c1c(F)cc(F)cc1F` yielded a melting point above 300 °C.

Turning to `CC(C)Cc1cccc(-c2nc(C(C)C)n(C)n2)n1`, the melting point turned out to be 80.1 °C.

`C=CCn1c(S)nc2c(cnn2C)c1=O` had a melting point of 171 to 174 °C.

Consider `O=C1CC(C(=O)O)CC(O)=C1N=Nc1ccccc1` (configuration not stated), for which the melting point amounted to 218 °C.

In the case of `CCOC(=O)Cc1ccc(C(=O)c2ccc(C)cc2)n1C`, the melting point lay within 70 to 71 °C.

`COc1cc(OC)c2c(=O)[nH]c(-c3ccc(O)cc3)nc2c1` registered a melting point of 303 to 305 °C.

Turning to `Cc1oc(-c2ccccc2)nc1COc1ccc(COc2nn(-c3ccccc3)cc2/C=C/C(=O)O)cc1`, the melting point fell in the range of 186 to 187 °C.

For `Cn1c(CN2C(=O)C3(COc4cc5c(cc43)CCO5)c3ccccc32)nc2ccccc21` (configuration not stated), the melting point lay in the range of 244 to 246 °C.

Consider `CN(C)CCOc1cc(CCCOc2nn(Cc3ccccc3)cc2CC(=O)O)n(Cc2ccc(Cl)cc2Cl)n1`, for which the melting point fell in the range of 78.3 to 80.8 °C.

On to `O=C(NN=CC(Cl)(Cl)Cl)c1cccc(Oc2cccc(C(F)(F)F)c2)n1`, for which the melting point was 81 to 82 °C.

With `CC(C(N)=O)c1ccc2c(c1)Sc1ncccc1CC2=O` (configuration not stated), the melting point was in the range of 161 to 162 °C.

Compound `COc1ccccc1N1CCN(CC(O)COc2ccccc2CN)CC1` (configuration not stated) yielded a melting point of 113 to 114 °C.

Take `Cc1ccc(F)c2c1N(CC(=O)Nc1ccccc1F)C(=O)C21COc2cc3c(cc21)CCO3` (configuration not stated): the melting point is 250 to 255 °C.

`O=C(Nc1ccc2cc(CN3CCCC3)cnc2c1)N1CCC(c2ccccc2)CC1` came in with a melting point of 222 to 224 °C.

The compound `COc1ccc2c(c1)sc1nc(Nc3ccccc3)nc(=N)n12` displayed a melting point of 225 to 226 °C.

On to `COc1ccc(C2CCSCC2)cc1OC1CCCC1`, for which the melting point was in the range of 83 to 85 °C.
